In ChEMBL document CHEMBL1201862, “PubChem BioAssay data set” (2004):
Active and inactive are the calls of the source.

Key:
[1] = biological target: Dual specificity mitogen-activated protein kinase kinase 2 (Homo sapiens, UniProt P36507); experiment: Navigating the Kinome. Panel member name: MAP2K2; type: functional
[2] = biological target: Rho-associated protein kinase 1 (Homo sapiens, UniProt Q13464); type: functional;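 note: measured within a broad kinome-wide panel profiling many kinases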
[3] = biological target: Tyrosine-protein kinase ABL1 (Homo sapiens, UniProt P00519); type: functional
Chain of Tyrosine-protein kinase ABL1 (P00519 whole entry): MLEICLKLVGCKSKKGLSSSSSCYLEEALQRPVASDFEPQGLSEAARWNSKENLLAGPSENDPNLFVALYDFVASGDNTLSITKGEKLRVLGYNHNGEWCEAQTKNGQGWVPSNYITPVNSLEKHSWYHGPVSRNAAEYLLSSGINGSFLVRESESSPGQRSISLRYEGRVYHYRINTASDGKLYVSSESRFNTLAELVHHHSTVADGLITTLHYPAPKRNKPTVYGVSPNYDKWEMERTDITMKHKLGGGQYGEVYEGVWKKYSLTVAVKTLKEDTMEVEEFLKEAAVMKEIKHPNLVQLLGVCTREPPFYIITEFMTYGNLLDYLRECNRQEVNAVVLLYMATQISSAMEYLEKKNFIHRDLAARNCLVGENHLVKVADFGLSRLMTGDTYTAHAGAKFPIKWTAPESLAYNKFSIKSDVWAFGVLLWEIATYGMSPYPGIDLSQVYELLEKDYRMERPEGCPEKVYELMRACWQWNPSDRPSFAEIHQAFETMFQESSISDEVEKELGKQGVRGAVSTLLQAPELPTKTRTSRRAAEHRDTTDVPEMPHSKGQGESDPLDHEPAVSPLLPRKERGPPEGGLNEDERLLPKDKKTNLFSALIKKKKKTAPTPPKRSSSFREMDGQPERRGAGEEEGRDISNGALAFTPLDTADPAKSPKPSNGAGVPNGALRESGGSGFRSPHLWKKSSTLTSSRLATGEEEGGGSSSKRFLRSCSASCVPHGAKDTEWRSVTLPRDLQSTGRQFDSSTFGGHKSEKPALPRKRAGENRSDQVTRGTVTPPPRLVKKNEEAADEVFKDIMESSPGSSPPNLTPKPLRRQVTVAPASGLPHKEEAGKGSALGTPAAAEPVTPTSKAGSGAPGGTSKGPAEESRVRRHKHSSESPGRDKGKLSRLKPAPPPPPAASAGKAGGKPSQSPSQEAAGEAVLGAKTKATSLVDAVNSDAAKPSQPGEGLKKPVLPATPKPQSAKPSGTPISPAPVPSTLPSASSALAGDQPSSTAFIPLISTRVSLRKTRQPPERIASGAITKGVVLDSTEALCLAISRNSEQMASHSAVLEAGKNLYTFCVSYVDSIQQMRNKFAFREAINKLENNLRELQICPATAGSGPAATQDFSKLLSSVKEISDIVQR

[4] = biological target: Serine/threonine-protein kinase PAK 4 (Homo sapiens, UniProt O96013); type: functional;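 note: value obtained within a kinome profiling panel in which PAK4 was one of the panel members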
Chain of Serine/threonine-protein kinase PAK 4 (O96013 whole entry): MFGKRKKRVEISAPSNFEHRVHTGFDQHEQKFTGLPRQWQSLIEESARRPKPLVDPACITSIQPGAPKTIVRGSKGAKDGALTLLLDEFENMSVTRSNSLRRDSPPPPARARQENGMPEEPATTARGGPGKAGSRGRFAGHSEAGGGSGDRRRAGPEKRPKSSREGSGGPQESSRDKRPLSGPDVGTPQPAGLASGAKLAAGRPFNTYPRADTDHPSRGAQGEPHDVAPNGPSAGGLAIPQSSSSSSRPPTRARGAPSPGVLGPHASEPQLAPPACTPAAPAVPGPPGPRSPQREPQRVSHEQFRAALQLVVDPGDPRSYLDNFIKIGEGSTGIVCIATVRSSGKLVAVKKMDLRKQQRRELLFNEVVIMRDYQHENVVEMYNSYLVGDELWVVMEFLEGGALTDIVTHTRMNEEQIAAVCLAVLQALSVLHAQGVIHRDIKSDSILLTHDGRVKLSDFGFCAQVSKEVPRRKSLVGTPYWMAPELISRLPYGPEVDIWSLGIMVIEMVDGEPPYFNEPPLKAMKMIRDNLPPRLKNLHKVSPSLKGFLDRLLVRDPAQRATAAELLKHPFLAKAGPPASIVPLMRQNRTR

[5] = biological target: Tyrosine-protein kinase Lck (Homo sapiens, UniProt P06239); type: functional;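 note: lck was assayed as one member of a kinase panel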
Chain of Tyrosine-protein kinase Lck (P06239 whole entry): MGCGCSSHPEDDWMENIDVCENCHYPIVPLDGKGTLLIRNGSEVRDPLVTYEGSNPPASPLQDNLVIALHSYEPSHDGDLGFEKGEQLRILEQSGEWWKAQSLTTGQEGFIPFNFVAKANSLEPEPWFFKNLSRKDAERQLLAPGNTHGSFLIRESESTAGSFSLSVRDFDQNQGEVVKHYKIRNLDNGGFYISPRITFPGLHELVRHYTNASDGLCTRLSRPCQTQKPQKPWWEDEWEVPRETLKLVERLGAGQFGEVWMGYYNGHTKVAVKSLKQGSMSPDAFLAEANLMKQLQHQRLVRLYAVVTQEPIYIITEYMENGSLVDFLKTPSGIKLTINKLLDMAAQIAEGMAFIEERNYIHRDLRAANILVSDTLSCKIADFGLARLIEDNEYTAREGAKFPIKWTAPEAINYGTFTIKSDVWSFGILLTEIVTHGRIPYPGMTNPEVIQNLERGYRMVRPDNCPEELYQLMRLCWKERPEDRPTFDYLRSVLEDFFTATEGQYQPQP

[6] = biological target: G protein-coupled receptor kinase 5 (Homo sapiens, UniProt P34947); experiment: Navigating the Kinome. Panel member name: GPRK5; type: functional
[7] = biological target: Serine/threonine-protein kinase TBK1 (Homo sapiens, UniProt Q9UHD2); experiment: Navigating the Kinome. Panel member name: TBK1; type: functional
[8] = biological target: cAMP-dependent protein kinase catalytic subunit PRKX (Homo sapiens, UniProt P51817); type: functional
Chain of cAMP-dependent protein kinase catalytic subunit PRKX (P51817 whole entry): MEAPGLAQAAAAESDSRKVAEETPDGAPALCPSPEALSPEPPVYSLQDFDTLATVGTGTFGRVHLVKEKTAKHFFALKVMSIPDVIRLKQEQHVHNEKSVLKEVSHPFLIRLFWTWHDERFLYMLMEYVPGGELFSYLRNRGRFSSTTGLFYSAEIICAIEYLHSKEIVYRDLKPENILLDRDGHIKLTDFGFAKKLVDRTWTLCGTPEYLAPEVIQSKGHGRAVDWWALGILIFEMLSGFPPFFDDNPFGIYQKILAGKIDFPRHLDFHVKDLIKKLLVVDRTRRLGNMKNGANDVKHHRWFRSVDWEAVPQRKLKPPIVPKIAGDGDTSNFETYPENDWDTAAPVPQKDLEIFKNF

[9] = biological target: Calcium/calmodulin-dependent protein kinase type II subunit alpha (Homo sapiens, UniProt Q9UQM7); experiment: Navigating the Kinome. Panel member name: CAMK2A; type: functional
[10] = biological target: Serine/threonine-protein kinase TAO1 (Homo sapiens, UniProt Q7L7X3); type: functional
[11] = biological target: Mitogen-activated protein kinase 9 (Homo sapiens, UniProt P45984); type: functional;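 note: value from a kinome panel profiling assay, MAPK9 panel entry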
Chain of Mitogen-activated protein kinase 9 (P45984 whole entry): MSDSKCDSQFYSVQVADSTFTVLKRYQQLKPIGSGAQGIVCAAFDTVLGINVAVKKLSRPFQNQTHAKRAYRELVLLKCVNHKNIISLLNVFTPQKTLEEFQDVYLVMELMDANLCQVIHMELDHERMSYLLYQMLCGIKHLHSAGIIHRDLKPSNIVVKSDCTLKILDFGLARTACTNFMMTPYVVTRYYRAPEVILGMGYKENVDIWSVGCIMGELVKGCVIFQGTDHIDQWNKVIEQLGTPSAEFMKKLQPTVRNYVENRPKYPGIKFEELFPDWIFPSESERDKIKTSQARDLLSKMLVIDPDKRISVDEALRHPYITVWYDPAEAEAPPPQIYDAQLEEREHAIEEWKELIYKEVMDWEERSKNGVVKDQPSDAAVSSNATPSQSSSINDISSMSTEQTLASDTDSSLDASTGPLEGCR

[12] = biological target: Receptor tyrosine-protein kinase erbB-4 (Homo sapiens, UniProt Q15303); type: functional;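 note: ERBB4 member of a kinome-wide kinase profiling panel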
[13] = biological target: Tyrosine-protein kinase Blk (Homo sapiens, UniProt P51451); type: functional;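 note: obtained as one member of a kinome-wide kinase assay panel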
[14] = biological target: Interleukin-1 receptor-associated kinase 4 (Homo sapiens, UniProt Q9NWZ3); type: functional
[15] = biological target: Serine/threonine-protein kinase PLK3 (Homo sapiens, UniProt Q9H4B4); type: functional
Chain of Serine/threonine-protein kinase PLK3 (Q9H4B4 whole entry): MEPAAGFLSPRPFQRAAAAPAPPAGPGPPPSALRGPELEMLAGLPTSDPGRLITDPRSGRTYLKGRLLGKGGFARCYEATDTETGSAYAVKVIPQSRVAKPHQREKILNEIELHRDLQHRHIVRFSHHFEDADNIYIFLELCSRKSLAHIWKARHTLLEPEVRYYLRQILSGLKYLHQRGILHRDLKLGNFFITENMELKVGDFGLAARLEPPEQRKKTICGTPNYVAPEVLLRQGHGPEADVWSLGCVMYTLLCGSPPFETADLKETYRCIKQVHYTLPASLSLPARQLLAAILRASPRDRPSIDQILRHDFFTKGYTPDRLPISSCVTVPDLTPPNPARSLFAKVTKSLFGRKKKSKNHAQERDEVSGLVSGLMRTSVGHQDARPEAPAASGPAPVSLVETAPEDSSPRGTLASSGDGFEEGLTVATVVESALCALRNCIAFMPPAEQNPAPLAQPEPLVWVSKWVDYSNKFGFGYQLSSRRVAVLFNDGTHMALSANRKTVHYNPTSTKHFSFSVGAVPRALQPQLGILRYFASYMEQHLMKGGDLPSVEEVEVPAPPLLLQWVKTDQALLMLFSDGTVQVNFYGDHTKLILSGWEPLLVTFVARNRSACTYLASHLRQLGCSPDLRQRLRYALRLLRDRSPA

[16] = biological target: Fibroblast growth factor receptor 3 (Homo sapiens, UniProt P22607); type: functional
[17] = biological target: MAP/microtubule affinity-regulating kinase 3 (Homo sapiens, UniProt P27448); type: functional;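 note: MARK3 affinity measured as one member of a kinome panel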
[18] = biological target: Mitogen-activated protein kinase 12 (Homo sapiens, UniProt P53778); type: functional;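 note: measured as one member of a kinome-wide kinase profiling panel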
ORF 73 = biological target: T1, ORF 73 (Human herpesvirus 8, UniProt O40947); experiment: inhibitors of C-LANA binding to LBS DNA, dose response, biochemical, fluorescence polarization, cherry-picked samples (AID 504725); design: species or system Human gammaherpesvirus 8;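 note: fluorescence polarization of a labeled DNA duplex reporting LANA DNA binding; potency is for inhibitors that block LANA binding to the DNA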
T1 sequence (O40947 whole entry): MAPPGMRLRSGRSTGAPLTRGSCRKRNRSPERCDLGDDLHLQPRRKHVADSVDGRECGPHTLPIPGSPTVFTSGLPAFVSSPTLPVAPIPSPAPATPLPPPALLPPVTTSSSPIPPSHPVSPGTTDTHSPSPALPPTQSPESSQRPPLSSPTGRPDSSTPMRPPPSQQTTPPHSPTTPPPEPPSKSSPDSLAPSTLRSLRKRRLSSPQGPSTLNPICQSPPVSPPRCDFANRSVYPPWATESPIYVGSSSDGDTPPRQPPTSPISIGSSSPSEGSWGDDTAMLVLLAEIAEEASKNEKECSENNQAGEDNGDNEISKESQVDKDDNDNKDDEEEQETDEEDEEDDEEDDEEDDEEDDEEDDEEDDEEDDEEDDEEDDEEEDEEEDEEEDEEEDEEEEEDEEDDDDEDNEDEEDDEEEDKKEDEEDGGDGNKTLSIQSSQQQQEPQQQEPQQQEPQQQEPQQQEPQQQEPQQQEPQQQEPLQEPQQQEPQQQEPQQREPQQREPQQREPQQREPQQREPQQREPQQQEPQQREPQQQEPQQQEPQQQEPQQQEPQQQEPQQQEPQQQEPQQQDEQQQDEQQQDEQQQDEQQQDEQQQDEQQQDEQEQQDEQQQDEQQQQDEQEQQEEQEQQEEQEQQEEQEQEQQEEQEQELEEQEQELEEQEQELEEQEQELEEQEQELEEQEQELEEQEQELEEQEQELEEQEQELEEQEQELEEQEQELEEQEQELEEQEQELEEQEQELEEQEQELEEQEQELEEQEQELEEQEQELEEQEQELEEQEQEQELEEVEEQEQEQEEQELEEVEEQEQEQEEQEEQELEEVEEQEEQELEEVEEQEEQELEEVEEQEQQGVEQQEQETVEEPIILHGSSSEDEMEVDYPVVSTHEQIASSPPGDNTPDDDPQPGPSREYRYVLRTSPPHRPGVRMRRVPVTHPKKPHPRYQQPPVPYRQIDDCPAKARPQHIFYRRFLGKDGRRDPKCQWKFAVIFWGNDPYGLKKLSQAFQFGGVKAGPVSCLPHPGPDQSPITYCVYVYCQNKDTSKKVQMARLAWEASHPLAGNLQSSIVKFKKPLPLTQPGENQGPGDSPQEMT

[19] = biological target: T2, Long-chain-fatty-acid--AMP ligase FadD28 (Mycobacterium tuberculosis, UniProt P9WQ59); experiment: Fluorescence polarization aasay to screen for inhibitors that compete for the binding of FadD28 to a bisubstrate Measured in Biochemical System Using Plate Reader - 2147-01_Inhibitor_Dose_CherryPick_Activity.; type: functional, Mycobacterium tuberculosis H37Rv
T2 sequence (P9WQ59 whole entry): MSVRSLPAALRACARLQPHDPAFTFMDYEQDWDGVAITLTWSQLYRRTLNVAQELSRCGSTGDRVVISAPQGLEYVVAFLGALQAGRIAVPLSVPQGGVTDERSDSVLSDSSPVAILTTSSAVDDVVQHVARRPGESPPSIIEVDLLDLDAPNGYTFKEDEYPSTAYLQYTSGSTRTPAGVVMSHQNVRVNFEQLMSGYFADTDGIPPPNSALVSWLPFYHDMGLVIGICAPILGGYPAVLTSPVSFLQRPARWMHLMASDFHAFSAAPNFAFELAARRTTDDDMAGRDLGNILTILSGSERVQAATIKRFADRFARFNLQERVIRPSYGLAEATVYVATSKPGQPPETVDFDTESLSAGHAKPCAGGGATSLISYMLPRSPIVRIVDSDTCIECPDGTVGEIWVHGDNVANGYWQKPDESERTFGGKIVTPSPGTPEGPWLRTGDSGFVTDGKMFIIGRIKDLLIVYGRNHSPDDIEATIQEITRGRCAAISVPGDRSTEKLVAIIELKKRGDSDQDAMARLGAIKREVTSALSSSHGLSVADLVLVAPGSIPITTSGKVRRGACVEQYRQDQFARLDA

Genome polyprotein = Genome polyprotein (dengue virus type 2, UniProt P29990); experiment: Dengue-2 NS5 methyltransferase inhibitors, primary screen, biochemical, confirmation dose response (AID 588689); type: functional

Chain of Rho-associated protein kinase 1 (Q13464 whole entry): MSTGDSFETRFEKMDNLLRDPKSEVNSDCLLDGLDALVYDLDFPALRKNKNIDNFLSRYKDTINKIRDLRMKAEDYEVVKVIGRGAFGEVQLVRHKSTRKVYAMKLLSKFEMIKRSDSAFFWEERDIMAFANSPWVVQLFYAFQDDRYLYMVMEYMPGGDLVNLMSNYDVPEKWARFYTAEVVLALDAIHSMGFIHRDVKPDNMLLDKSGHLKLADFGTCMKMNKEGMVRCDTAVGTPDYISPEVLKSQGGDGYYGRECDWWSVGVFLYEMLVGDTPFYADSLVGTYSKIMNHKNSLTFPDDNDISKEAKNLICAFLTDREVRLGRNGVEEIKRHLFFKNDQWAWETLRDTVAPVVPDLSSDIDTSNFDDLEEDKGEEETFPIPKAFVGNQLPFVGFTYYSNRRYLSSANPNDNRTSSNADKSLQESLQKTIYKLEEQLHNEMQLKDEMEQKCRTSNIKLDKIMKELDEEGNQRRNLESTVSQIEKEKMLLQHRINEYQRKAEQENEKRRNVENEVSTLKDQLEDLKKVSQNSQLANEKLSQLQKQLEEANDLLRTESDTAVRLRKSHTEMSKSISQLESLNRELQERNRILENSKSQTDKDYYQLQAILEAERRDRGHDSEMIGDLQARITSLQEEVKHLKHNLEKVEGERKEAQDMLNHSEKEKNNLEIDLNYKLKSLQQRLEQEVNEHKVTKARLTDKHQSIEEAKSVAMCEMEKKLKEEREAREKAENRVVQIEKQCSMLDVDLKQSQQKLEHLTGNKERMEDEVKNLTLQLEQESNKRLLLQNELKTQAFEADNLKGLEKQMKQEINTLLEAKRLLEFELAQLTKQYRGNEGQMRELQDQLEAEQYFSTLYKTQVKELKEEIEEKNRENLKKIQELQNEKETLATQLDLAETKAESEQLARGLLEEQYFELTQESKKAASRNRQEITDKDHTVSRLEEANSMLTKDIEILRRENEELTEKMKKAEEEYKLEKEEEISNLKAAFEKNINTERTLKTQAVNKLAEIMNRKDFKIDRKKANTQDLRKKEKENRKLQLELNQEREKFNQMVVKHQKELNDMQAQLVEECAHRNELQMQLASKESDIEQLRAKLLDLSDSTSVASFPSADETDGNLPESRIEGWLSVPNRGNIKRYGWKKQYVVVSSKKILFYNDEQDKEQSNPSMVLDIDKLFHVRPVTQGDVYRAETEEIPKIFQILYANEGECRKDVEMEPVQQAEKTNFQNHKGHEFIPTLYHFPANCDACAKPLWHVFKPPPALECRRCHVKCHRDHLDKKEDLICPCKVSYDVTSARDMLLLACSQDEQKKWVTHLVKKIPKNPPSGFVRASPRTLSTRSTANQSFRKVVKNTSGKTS

Cc1cc(=O)[nH]nc1-c1ccc(NC(=O)Nc2cc(C(F)(F)F)ccc2F)c(Cl)c1
inactive: Ki [1] > 3.98 µM | Ki [2] > 3.98 µM | Ki [3] > 2.51 µM | Ki [4] > 5.01 µM | Ki [5] > 6.31 µM | Ki [6] > 3.98 µM | Ki [7] > 3.16 µM | Ki [8] > 3.16 µM | Ki [9] > 3.98 µM | Ki [10] > 6.31 µM | Ki [11] > 3.98 µM

CCOC(=O)c1cn(-c2ccc(O)cc2C)c2cc(-c3ccncc3)ccc2c1=O
inactive: Ki [12] > 3.98 µM | Ki [3] > 0.631 µM | Ki [13] > 1.58 µM | Ki [14] > 10 µM | Ki [4] > 5.01 µM | Ki [15] > 7.94 µM | Ki [5] > 2.51 µM | Ki [16] > 2 µM | Ki [17] > 6.31 µM | Ki [18] > 6.31 µM | Ki [11] > 3.98 µM
active: Ki [2] 0.158 µM

O=C(O)c1[nH]c2ccccc2c1C(c1cc(Cl)cc([N+](=O)[O-])c1O)c1c(C(=O)O)[nH]c2ccccc12
active: AC50 (ORF 73) 88.1 µM | AC50 [19] 7.15 µM | IC50 (Genome polyprotein) 9.77 µM
